According to patent US20220306585A1, “PYRAZOLE DERIVATIVES FOR CONTROLLING ARTHROPODS” (Bayer Animal Health GmbH, priority 2019, published 2022):
Converted amounts (≈) assume the structure as drawn.

Experiment: Measurement of solubility in buffer at pH 6.5
Assay type: physicochemical
Settings: aqueous buffer, kinetic from dmso stock; PBS buffer pH 6.5, shaken 24 h at rt, LC-MSMS; read-out: Solubility of example compounds at pH 6.5
Procedure, shortened: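 DMSO stock (50 g/L) diluted into PBS pH 6.5, nominal final […], shaken 24 h at rt. After centrifugation, supernatant concentration quantified by LC-MSMS against a 1.2–600 ng/mL calibration curve.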

N#CC1(N(COC(=O)/C=C/C(=O)O)C(=O)c2cc(-c3cnn(-c4c(Cl)cc(C(F)(C(F)(F)F)C(F)(F)F)cc4OC(F)(F)F)c3)ccc2Cl)CC1 [Example 13, (2E)-4-{[(2-Chloro-5-{1-[2-chloro-4-(1,1,1,2,3,3,3-heptafluoropropan-2-yl)-6-(trifluoromethoxy)phenyl]-1H-pyrazol-4-yl}benzoyl)(1-cyanocyclopropyl)amino]methoxy}-4-oxobut-2-enoic acid]
solubility at 24 h: 18 µg/mL (≈ 23.2 µM)
